Results on 13 molecules are retold here after ChEMBL document CHEMBL1201862, “PubChem BioAssay data set” (2004).

Activity calls are given as the source filed them.

In experiment [1] the target is NAD-dependent protein deacylase sirtuin-5, mitochondrial (Homo sapiens, UniProt Q9NXA8). The experiment in a line: SIRT5 desuccinylase inhibitors, dose response, biochemical, fluorescence imaging, cherry-pick, set 5 (AID 720591).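 Also: desuccinylation of succinyl peptide AMC substrate read as fluorescence after trypsin release; potency of inhibitors that lower fluorescence and may act on trypsin instead.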
The target in the next experiment is Prothrombin (Homo sapiens, UniProt P00734). The experiment is described as follows: Thrombin 1536 HTS Dose Response Confirmation. [Related pubchem assays: 1046 (Thrombin 1536 HTS; hits were confirmed in this assay)]. Type of experiment: functional.
In another experiment the test system is HEK293. The experiment is described as follows: cells. Type of experiment: functional, cell-based. Conditions: Homo sapiens.
The target of experiment [2] is T1, Nuclear receptor subfamily 0 group B member 1 (Homo sapiens, UniProt P51843).
T1 sequence (P51843 whole entry): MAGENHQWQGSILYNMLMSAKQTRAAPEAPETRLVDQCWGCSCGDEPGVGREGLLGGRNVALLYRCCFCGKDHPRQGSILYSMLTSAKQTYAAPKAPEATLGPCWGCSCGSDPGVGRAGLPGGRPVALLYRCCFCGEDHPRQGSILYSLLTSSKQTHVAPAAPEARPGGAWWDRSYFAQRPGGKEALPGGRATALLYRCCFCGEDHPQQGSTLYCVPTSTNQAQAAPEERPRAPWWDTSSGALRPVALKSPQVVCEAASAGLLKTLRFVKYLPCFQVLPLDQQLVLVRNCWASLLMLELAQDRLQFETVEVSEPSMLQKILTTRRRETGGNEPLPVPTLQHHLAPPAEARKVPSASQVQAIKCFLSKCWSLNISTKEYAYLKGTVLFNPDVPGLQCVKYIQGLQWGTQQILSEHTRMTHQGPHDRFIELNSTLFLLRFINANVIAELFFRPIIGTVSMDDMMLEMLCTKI
The experiment is described as follows: Luminescence-based cell-based high throughput dose response assay for inhibitors of the orphan nuclear receptor subfamily 0, group B, member 1 (DAX1; NR0B1). [Related pubchem assays (depositor defined):AID504766, AID504790]. Type of experiment: functional.

For the next experiment, the target named is Protein Wnt-3a (Mus musculus, UniProt P27467). The experiment is described as follows: Wnt3a-driven reporter signaling inhibition, dose response, selectivity assay for Gli-SUFU antagonist project, Wnt-LIGHT cells, luminescence (AID 651570).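 Also: Wnt-LIGHT reporter cells stimulated with conditioned medium from Wnt3a-producing cells.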 Type of experiment: functional. As to conditions: read-out: IC50_Mean.
Experiment [3] addresses T2, Corticotropin-releasing factor receptor 2/Corticotropin-releasing factor-binding protein (Homo sapiens, UniProt P24387+Q13324).
T2 sequence (Q13324 whole entry): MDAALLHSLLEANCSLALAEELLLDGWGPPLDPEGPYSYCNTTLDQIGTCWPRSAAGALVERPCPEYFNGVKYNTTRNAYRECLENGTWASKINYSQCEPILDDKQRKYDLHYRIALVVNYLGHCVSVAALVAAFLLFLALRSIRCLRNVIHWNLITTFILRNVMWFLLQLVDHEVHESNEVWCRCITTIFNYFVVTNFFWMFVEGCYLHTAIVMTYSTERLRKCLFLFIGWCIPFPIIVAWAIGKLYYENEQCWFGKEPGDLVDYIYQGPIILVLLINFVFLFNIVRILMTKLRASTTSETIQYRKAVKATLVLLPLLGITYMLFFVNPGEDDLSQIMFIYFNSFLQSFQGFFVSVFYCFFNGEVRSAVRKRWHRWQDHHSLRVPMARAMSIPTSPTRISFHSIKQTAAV
T2 sequence (P24387 whole entry): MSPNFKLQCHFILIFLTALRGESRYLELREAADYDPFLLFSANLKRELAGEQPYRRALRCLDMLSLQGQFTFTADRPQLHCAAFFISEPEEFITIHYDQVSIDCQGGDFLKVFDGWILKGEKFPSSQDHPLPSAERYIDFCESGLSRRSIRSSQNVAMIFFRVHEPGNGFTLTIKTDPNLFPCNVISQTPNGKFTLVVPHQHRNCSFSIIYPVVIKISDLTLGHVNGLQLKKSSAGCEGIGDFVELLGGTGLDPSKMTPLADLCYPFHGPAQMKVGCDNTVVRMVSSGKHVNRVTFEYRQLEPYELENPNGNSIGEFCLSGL
The experiment in a line: Dose Response confirmation of uHTS hits for small molecule antagonists of the CRF-binding protein and CRF-R2 receptor complex. Type of experiment: functional. Conditions: read-out: IC50_Mean.

Experiment [4] addresses T2, Corticotropin-releasing factor receptor 2/Corticotropin-releasing factor-binding protein. The experiment in a line: activators of CRF receptor 2 with binding protein – uHTS hits, confirmation (AID 602473). Type of experiment: functional. As to conditions: read-out: EC50_Mean.
Experiment [5] in a line: CRF-BP/CRF-R2 complex antagonists, dose response, cell-based, uHTS hits, 384-well (AID 651639). Type of experiment: functional, Homo sapiens. As to conditions: read-out: IC50_Mean.
The nature of experiment [6]: Luminescence-based cell-based high throughput dose response assay to identify activators of the DAF-12 from the parasite S. stercoralis (ssDAF-12). Type of experiment: functional.
Experiment [7] can be described thus: cytotoxicity in HEK-293T cells, dose response, cytotoxicity control for TCR NF-kB inhibitor project, luminescence, T-cell screen hits (AID 489026).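 Also: cells exposed to compound about 14 hours before the viability readout.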 Type of experiment: functional, cell-based.
The target of the next experiment is Major prion protein (Homo sapiens, UniProt P04156). Type of experiment: functional, cell-based.
The target in a further experiment is Paired box protein Pax-8 (Homo sapiens, UniProt Q06710). The experiment in a line: inhibitors of PAX8-driven TPO luciferase reporter, dose response, RMG-I cells, cherry-pick (AID 687027).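 Also: luciferase reporter driven by Pax8 target thyroperoxidase promoter measured by SteadyGlo luminescence.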 Type of experiment: functional, cell-based.
A short description of experiment [8]: A2780 ovarian cancer cell cytotoxicity, dose response, cytotoxicity control, plate reader, dry powder samples (AID 743046). Type of experiment: functional, cell-based.
A short description of experiment [9]: cytotoxicity in OVCAR8 ovarian cancer cells, dose response, PAX8 project, cell-based, plate reader, dry powder samples (AID 743197). Conditions: OVCAR-8. Type of experiment: functional.

Usually AC50 stands for the midpoint of the concentration-response curve, whichever way the signal moves. In the case of `Cc1cc(C2C(=O)c3ccccc3C2=O)c(C)c(C)c1C`, in experiment [1], the AC50 is > 30 µM (inactive).
On to `CCOC(=O)N1CCN(C(=O)C2CCCN(S(=O)(=O)c3cc(C)ccc3OC)C2)CC1` (stereo unspecified), for which the IC50 against Prothrombin was > 50 µM (not active).
As for `COc1ccc([N+](=O)[O-])cc1NC(=S)NC(C)=O`, the IC50 (with HEK293; in experiment [2]) was > 67.6 µM (inactive) throughout.
With `COC(=O)C1=C(c2cc3ccccc3o2)C[C@@H]2CC[C@H]1N2C(=O)N1CCC(C)CC1`, the IC50 on Protein Wnt-3a was 24.4 µM (inactive).
For the molecule `COc1ccc(C(=O)C2CCCN(Cc3c[nH]nc3-c3ccccc3)C2)cc1OC` (stereo unspecified), the AC50 in experiment [1] was > 30 µM (inactive).
As for `CC(C)c1cc(C(F)(F)F)nc(NNc2nc(C(C)C)cc(C(F)(F)F)n2)n1`, the values for the IC50 in [3] and in experiment [5] were 0.988 µM (active) and > 20 µM (inactive), respectively. Also, the EC50 in experiment [4] was > 53 µM (inactive).
For `Cc1cc2oc(C(=O)NCC(c3ccco3)N3CCCC3)c(C)c2cc1C` (stereo unspecified), the IC50 in [6] was > 67.6 µM (inactive).
As to `CCc1nnc(NC(=O)CCC(=O)N2CCCC2)s1`, the IC50 against Prothrombin was > 50 µM (not active).
With `COc1cc(C(=O)Nc2ccc3c(c2)ncn3C)cc(OC)c1OC`, the IC50 in experiment [7] is > 80 µM (inactive); at Major prion protein, 6.23 µM (active); in “cells”, > 138 µM (inactive).
As to `COc1ccc(NC(=O)Nc2ccc3c(c2)C(=O)N([C@H](C)CO)C[C@@H](C)[C@@H](CN(C)C(=O)Cc2ccccc2)OCCCC[C@H](C)O3)cc1`, the AC50 is 30.9 µM (active) on Paired box protein Pax-8, 16.6 µM (active) in experiment [8] and > 70 µM (inactive) in experiment [9].
Regarding `COc1ccccc1NC(=O)N1CCCC(C(=O)Nc2cccc(C)c2C)C1` (stereo unspecified), the IC50 (in the experiment with HEK293; in experiment [2]) was > 67.6 µM (inactive) throughout.
With `NNC(=O)CN1C(=O)Nc2ccc(Br)cc2C1c1ccccc1` (stereo unspecified), the IC50 against Prothrombin is recorded as > 50 µM (not active).
Take `CCCCOc1ccc(N2C(N)=NC(N)=NC23CCCCC3)cc1`: the IC50 at Protein Wnt-3a was 18.3 µM (active).
